PubChem BioAssay (NCI)
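Cultured in 96-well plates, cells were exposed to test compound for 48 hours across five concentrations. Definition used: TGI = concentration required for complete inhibition of growth.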

Legend:
Assay in all cases: inhibition of tumour cell growth, NCI panel, 48 h
HT29 colon = test system: HT29 colon
HS 578T breast = test system: HS 578T breast
OVCAR-8 ovarian = test system: OVCAR-8 ovarian
UACC-257 melanoma = test system: UACC-257 melanoma
NCI-H522 lung = test system: NCI-H522 lung
K-562 leukemia = test system: K-562 leukemia
A549 NSCLC = test system: A549 NSCLC
HL-60(TB) leukemia = test system: HL-60(TB) leukemia
DU-145 prostate = test system: DU-145 prostate
HCT-116 colon = test system: HCT-116 colon
SK-MEL-28 melanoma = test system: SK-MEL-28 melanoma
MOLT-4 leukemia = test system: MOLT-4 leukemia
SW-620 colon = test system: SW-620 colon
IGROV1 ovarian = test system: IGROV1 ovarian
NCI-H226 lung = test system: NCI-H226 lung
NCI-H23 lung = test system: NCI-H23 lung
MDA-MB-435 = test system: MDA-MB-435
CCRF-CEM leukemia = test system: CCRF-CEM leukemia
T-47D breast = test system: T-47D breast
SN12C renal = test system: SN12C renal
SF-295 CNS = test system: SF-295 CNS
UO-31 renal = test system: UO-31 renal
ACHN renal = test system: ACHN renal
A498 renal = test system: A498 renal
RXF 393 renal = test system: RXF 393 renal
TK-10 renal = test system: TK-10 renal
CAKI-1 renal = test system: CAKI-1 renal
M14 melanoma = test system: M14 melanoma
SK-MEL-2 melanoma = test system: SK-MEL-2 melanoma
BT-549 breast = test system: BT-549 breast
OVCAR-3 ovarian = test system: OVCAR-3 ovarian
OVCAR-4 ovarian = test system: OVCAR-4 ovarian
786-0 renal = test system: 786-0 renal
EKVX NSCLC = test system: EKVX NSCLC
U251 CNS = test system: U251 CNS
SK-MEL-5 melanoma = test system: SK-MEL-5 melanoma
RPMI-8226 leukemia = test system: RPMI-8226 leukemia
PC-3 prostate = test system: PC-3 prostate
MDA-N = test system: MDA-N
SNB-19 CNS = test system: SNB-19 CNS
KM12 colon = test system: KM12 colon
MDA-MB-231 breast = test system: MDA-MB-231 breast
HCC-2998 colon = test system: HCC-2998 colon
COLO 205 colon = test system: COLO 205 colon
HOP-62 NSCLC = test system: HOP-62 NSCLC
MALME-3M melanoma = test system: MALME-3M melanoma
HCT-15 colon = test system: HCT-15 colon
OVCAR-5 ovarian = test system: OVCAR-5 ovarian
NCI-H460 lung = test system: NCI-H460 lung
SNB-75 CNS = test system: SNB-75 CNS
NCI/ADR-RES ovarian = test system: NCI/ADR-RES ovarian
SR leukemia = test system: SR leukemia
LOX IMVI melanoma = test system: LOX IMVI melanoma
UACC-62 melanoma = test system: UACC-62 melanoma
SF-539 CNS = test system: SF-539 CNS
MCF7 breast = test system: MCF7 breast
HOP-92 NSCLC = test system: HOP-92 NSCLC
SF-268 CNS = test system: SF-268 CNS
SK-OV-3 ovarian = test system: SK-OV-3 ovarian
DMS 114 small cell lung = test system: DMS 114 small cell lung
DMS 273 small cell lung = test system: DMS 273 small cell lung
SNB-78 CNS = test system: SNB-78 CNS
HOP-18 NSCLC = test system: HOP-18 NSCLC
KM20L2 colon = test system: KM20L2 colon
DLD-1 colon = test system: DLD-1 colon
LXFL 529 NSCLC = test system: LXFL 529 NSCLC
M19-MEL melanoma = test system: M19-MEL melanoma
XF 498 CNS = test system: XF 498 CNS

Work on `COc1ccc(-c2csc(=Nc3ccccc3)n2CC(O)c2ccc([N+](=O)[O-])cc2)cc1` (stereo unspecified) yielded a TGI (HT29 colon) greater than 100 µM, a TGI (HS 578T breast) greater than 100 µM and a TGI (OVCAR-8 ovarian) greater than 100 µM. The TGI (UACC-257 melanoma) was greater than 100 µM, the TGI (NCI-H522 lung) was greater than 100 µM and the TGI (K-562 leukemia) was greater than 100 µM. For the same molecule, the TGI (A549 NSCLC) was greater than 100 µM, the TGI (HL-60(TB) leukemia) was greater than 100 µM and the TGI (DU-145 prostate) was greater than 100 µM. It also gave a TGI (HCT-116 colon) greater than 100 µM, a TGI (SK-MEL-28 melanoma) greater than 100 µM and a TGI (MOLT-4 leukemia) greater than 100 µM. It also gave a TGI (SW-620 colon) greater than 100 µM, a TGI (IGROV1 ovarian) greater than 100 µM and a TGI (NCI-H226 lung) greater than 100 µM. The TGI (NCI-H23 lung) was greater than 100 µM, the TGI (MDA-MB-435) was greater than 100 µM and the TGI (CCRF-CEM leukemia) was greater than 100 µM. For the same molecule, the TGI (T-47D breast) was greater than 100 µM, the TGI (SN12C renal) was greater than 100 µM and the TGI (SF-295 CNS) was greater than 100 µM. The TGI (UO-31 renal) was greater than 100 µM, the TGI (ACHN renal) was greater than 100 µM and the TGI (A498 renal) was greater than 100 µM. It also gave a TGI (RXF 393 renal) greater than 100 µM, a TGI (TK-10 renal) greater than 100 µM and a TGI (CAKI-1 renal) greater than 100 µM. The TGI (M14 melanoma) was greater than 100 µM, the TGI (SK-MEL-2 melanoma) was greater than 100 µM and the TGI (BT-549 breast) was greater than 100 µM. The TGI (OVCAR-3 ovarian) was greater than 100 µM, the TGI (OVCAR-4 ovarian) was greater than 100 µM and the TGI (786-0 renal) was greater than 100 µM. The TGI (EKVX NSCLC) was greater than 100 µM, the TGI (U251 CNS) was greater than 100 µM and the TGI (SK-MEL-5 melanoma) was greater than 100 µM. The TGI (RPMI-8226 leukemia) was greater than 100 µM, the TGI (PC-3 prostate) was greater than 100 µM and the TGI (MDA-N) was greater than 100 µM. It also gave a TGI (SNB-19 CNS) greater than 100 µM, a TGI (KM12 colon) greater than 100 µM and a TGI (MDA-MB-231 breast) greater than 100 µM. For the same molecule, the TGI (HCC-2998 colon) was greater than 100 µM, the TGI (COLO 205 colon) was greater than 100 µM and the TGI (HOP-62 NSCLC) was greater than 100 µM. It also gave a TGI (MALME-3M melanoma) greater than 100 µM, a TGI (HCT-15 colon) greater than 100 µM and a TGI (OVCAR-5 ovarian) greater than 100 µM. The TGI (NCI-H460 lung) was greater than 100 µM, the TGI (SNB-75 CNS) was greater than 100 µM and the TGI (NCI/ADR-RES ovarian) was greater than 100 µM. It also gave a TGI (SR leukemia) greater than 100 µM, a TGI (LOX IMVI melanoma) greater than 100 µM and a TGI (UACC-62 melanoma) greater than 100 µM. For the same molecule, the TGI (SF-539 CNS) was greater than 100 µM, the TGI (MCF7 breast) was greater than 100 µM and the TGI (HOP-92 NSCLC) was greater than 100 µM. It also gave a TGI (SF-268 CNS) greater than 100 µM and a TGI (SK-OV-3 ovarian) greater than 100 µM.
Work on `CCOC(=O)N1CCc2cc(OC)c(OC)c3c2C1CC3=O` (stereo unspecified) yielded a TGI (DMS 114 small cell lung) greater than 100 µM, a TGI (HT29 colon) greater than 100 µM and a TGI (OVCAR-8 ovarian) greater than 100 µM. It also gave a TGI (UACC-257 melanoma) greater than 100 µM, a TGI (NCI-H522 lung) greater than 100 µM and a TGI (K-562 leukemia) greater than 100 µM. The TGI (A549 NSCLC) was greater than 100 µM, the TGI (DMS 273 small cell lung) was greater than 100 µM and the TGI (HL-60(TB) leukemia) was greater than 100 µM. It also gave a TGI (SNB-78 CNS) greater than 100 µM, a TGI (HCT-116 colon) greater than 100 µM and a TGI (MOLT-4 leukemia) greater than 100 µM. The TGI (SW-620 colon) was greater than 100 µM, the TGI (IGROV1 ovarian) was greater than 100 µM and the TGI (CCRF-CEM leukemia) was greater than 100 µM. For the same molecule, the TGI (HOP-18 NSCLC) was greater than 100 µM, the TGI (SN12C renal) was greater than 100 µM and the TGI (SF-295 CNS) was greater than 100 µM. For the same molecule, the TGI (UO-31 renal) was greater than 100 µM, the TGI (ACHN renal) was greater than 100 µM and the TGI (A498 renal) was greater than 100 µM. For the same molecule, the TGI (RXF 393 renal) was greater than 100 µM, the TGI (TK-10 renal) was greater than 100 µM and the TGI (CAKI-1 renal) was greater than 100 µM. The TGI (M14 melanoma) was greater than 100 µM, the TGI (SK-MEL-2 melanoma) was greater than 100 µM and the TGI (OVCAR-4 ovarian) was greater than 100 µM. For the same molecule, the TGI (786-0 renal) was greater than 100 µM, the TGI (U251 CNS) was greater than 100 µM and the TGI (SK-MEL-5 melanoma) was greater than 100 µM. It also gave a TGI (RPMI-8226 leukemia) greater than 100 µM, a TGI (KM20L2 colon) greater than 100 µM and a TGI (SNB-19 CNS) greater than 100 µM. The TGI (KM12 colon) was greater than 100 µM, the TGI (HCC-2998 colon) was greater than 100 µM and the TGI (COLO 205 colon) was greater than 100 µM. It also gave a TGI (DLD-1 colon) greater than 100 µM, a TGI (HOP-62 NSCLC) greater than 100 µM and a TGI (MALME-3M melanoma) greater than 100 µM. It also gave a TGI (HCT-15 colon) greater than 100 µM, a TGI (OVCAR-5 ovarian) greater than 100 µM and a TGI (NCI-H460 lung) greater than 100 µM. For the same molecule, the TGI (SNB-75 CNS) was greater than 100 µM, the TGI (LXFL 529 NSCLC) was greater than 100 µM and the TGI (M19-MEL melanoma) was greater than 100 µM. For the same molecule, the TGI (SR leukemia) was greater than 100 µM, the TGI (LOX IMVI melanoma) was greater than 100 µM and the TGI (UACC-62 melanoma) was greater than 100 µM. It also gave a TGI (SF-539 CNS) greater than 100 µM, a TGI (HOP-92 NSCLC) greater than 100 µM and a TGI (SF-268 CNS) greater than 100 µM. It also gave a TGI (SK-OV-3 ovarian) greater than 100 µM.
For `CC(=O)Oc1cc(OC(C)=O)c2c(=O)c3ccccc3[nH]c2c1`, the TGI (DMS 114 small cell lung) was greater than 100 µM, the TGI (HT29 colon) was greater than 100 µM and the TGI (OVCAR-8 ovarian) was greater than 100 µM. It also gave a TGI (UACC-257 melanoma) of 85.1 µM, a TGI (XF 498 CNS) of 51.9 µM and a TGI (NCI-H522 lung) of 76.6 µM. The TGI (A549 NSCLC) was greater than 100 µM, the TGI (DMS 273 small cell lung) was greater than 100 µM and the TGI (SNB-78 CNS) was greater than 100 µM. It also gave a TGI (HCT-116 colon) greater than 100 µM, a TGI (SK-MEL-28 melanoma) greater than 100 µM and a TGI (MOLT-4 leukemia) greater than 100 µM. It also gave a TGI (IGROV1 ovarian) of 81.1 µM, a TGI (NCI-H226 lung) of 88.9 µM and a TGI (NCI-H23 lung) greater than 100 µM. For the same molecule, the TGI (HOP-18 NSCLC) was 51.2 µM, the TGI (SN12C renal) was greater than 100 µM and the TGI (SF-295 CNS) was greater than 100 µM. The TGI (UO-31 renal) was 41.6 µM, the TGI (ACHN renal) was greater than 100 µM and the TGI (RXF 393 renal) was greater than 100 µM. The TGI (TK-10 renal) was greater than 100 µM, the TGI (SK-MEL-2 melanoma) was greater than 100 µM and the TGI (OVCAR-3 ovarian) was 83.7 µM. It also gave a TGI (OVCAR-4 ovarian) greater than 100 µM, a TGI (SK-MEL-5 melanoma) of 39.1 µM and a TGI (SNB-19 CNS) greater than 100 µM. The TGI (KM12 colon) was greater than 100 µM, the TGI (DLD-1 colon) was greater than 100 µM and the TGI (MALME-3M melanoma) was 67.9 µM. The TGI (HCT-15 colon) was greater than 100 µM, the TGI (NCI-H460 lung) was greater than 100 µM and the TGI (SNB-75 CNS) was 92.8 µM. For the same molecule, the TGI (LXFL 529 NSCLC) was greater than 100 µM, the TGI (M19-MEL melanoma) was 86.9 µM and the TGI (LOX IMVI melanoma) was greater than 100 µM. The TGI (UACC-62 melanoma) was greater than 100 µM, the TGI (SF-539 CNS) was 47.1 µM and the TGI (SF-268 CNS) was greater than 100 µM. For the same molecule, the TGI (SK-OV-3 ovarian) was 49.5 µM.
